In this assay the test system is mast cells. The assay can be described thus: Radioprotection of mast cells from γ-irradiation-induced apoptosis (anti-annexin V and propidium iodide staining). Type of assay: cell-based. Particulars: cultured mast cells from wild type and SWAP-70 ko/ko mice (similar degree in both); 100 ng/ml SCF, with or without IL-3; irradiated 0-160 Gy; FIG. 3B. The source says: Analysis of peritoneal fluid by Percol gradient centrifugation used step-gradients (increments 0.005) with densities of Percol in PBS, 2% FCS from 1.07 to 1.09. Cells accumulating in the pellet and those banding at 1.09 and 1.085 densities stained intensively with toluidine blue and with berberine sulfate and are regarded as mature mast cells. Assays for apoptosis used staining of cells with propidium iodide or anti annexin V antibodies as described (Ref. 15). Immunofluorescence and Western blotting were performed as described (Ref. 24).
Mast cells from wild type and SWAP-70^ko/ko mice were cultured in the presence or absence of 100 ng/ml SCF, with or without IL-3, and irradiated with various doses (0-160 Gy). Subsequently, apoptosis was measured by staining with anti-annexin V and propidium iodine. […] This elevated sensitivity was confirmed in a series of irradiation experiments in which mast cells were compared to other primary cell types, including thymocytes, preB cells, and fibroblasts. All of these non-mast cell were of identical sensitivity for γ-irradiation regardless of their SWAP-70 genotype. No increased sensitivity of SWAP-70 deficient mast cells for UV irradiation was observed.

As for stem cell factor [SCF], the “protection from γ-irradiation-induced apoptosis” value amounted to 3 fold.
